Assay results from patent publication US9663496B2, “AMPK-activating heterocyclic compounds and methods for using the same” (Rigel Pharmaceuticals, Inc., priority 2010, dated 2017).
pEC50: −log10 of the molar value.

Biological target: AMPK
Assay: AMPK activation, enzyme-linked immunosorbent assay
Type: biochemical
Conditions: EC50 for AMPK activation, ELISA
Experimental: Compounds were assayed for their ability to activate AMPK using an enzyme-linked immunosorbent assay. Reagents and procedures for measuring AMPK activation are well known and kits for AMPK activation assays are commercially available.

COc1ccc(C(=O)C2CCN(C(=O)c3ccc(C(=O)N[C@@H]4CCN(Cc5ccc(OC(F)(F)F)cc5)C[C@H]4F)cn3)CC2)cc1 (relative stereo) [Compound 350, N-((trans)-3-fluoro-1-(4-(trifluoromethoxy)benzyl)piperidin-4-yl)-6-(4-(4-methoxybenzoyl)piperidine-1-carbonyl)nicotinamide] was tested, and the pEC50 was > 6.30.
In the case of COc1ccc(C(=O)C2CCN(C(=O)c3ccc(C(=O)Nc4ccc(Oc5ccc(S(C)(=O)=O)cc5)nc4)cn3)CC2)cc1 [Compound 465, 6-(4-(4-methoxybenzoyl)piperidine-1-carbonyl)-N-(6-(4-(methylsulfonyl)phenoxy)pyridin-3-yl)nicotinamide], the pEC50 was > 6.30.
For N#Cc1ccc(CN2CCC(NC(=O)c3ccc(C(=O)N4CCC(Oc5ccncc5)CC4)cn3)CC2)cc1 [Compound 269, N-(1-(4-cyanobenzyl)piperidin-4-yl)-5-(4-(pyridin-4-yloxy)piperidine-1-carbonyl)picolinamide], the pEC50 was > 6.30.
With CS(=O)(=O)c1ccc(C(=O)C2CCN(C(=O)c3ccc(C(=O)NC4CCN(Cc5ccc(N6CCCC6)cc5)CC4)nc3)CC2)cc1 [Compound 233, 5-(4-(4-(methylsulfonyl)benzoyl)piperidine-1-carbonyl)-N-(1-(4-(pyrrolidin-1-yl)benzyl)piperidin-4-yl)picolinamide] the pEC50 was > 6.30.
In the case of O=C(NC1CCN(Cc2ccc(OC(F)(F)F)cc2)CC1)c1ccc(C(=O)N2CCC(Oc3cccc(NC(=O)C4CC4)c3)CC2)nc1 [Compound 438, 6-(4-(3-(cyclopropanecarboxamido)phenoxy)piperidine-1-carbonyl)-N-(1-(4-(trifluoromethoxy)benzyl)piperidin-4-yl)nicotinamide], the pEC50 was > 6.30.
With O=C(NC1CCN(Cc2ccccc2)CC1)c1ccc(C(=O)N2CCN(Cc3ccccc3)CC2)nc1 [Compound 74, 6-(4-benzylpiperazine-1-carbonyl)-N-(1-benzylpiperidin-4-yl)nicotinamide] the pEC50 was > 6.30.
With O=C(Nc1ccc(-c2ccccc2)cc1)c1ccc(C(=O)NC2CCN(Cc3ccccc3)CC2)nc1 [Compound 105, N2-(1-benzylpiperidin-4-yl)-N5-(biphenyl-4-yl)pyridine-2,5-dicarboxamide] the pEC50 was < 5.00.
N#Cc1ccc(CN2CCc3ccc(NC(=O)c4ccc(C(=O)NCc5ccc(F)cc5)cn4)cc3C2)cc1 [Compound 144, N2-(2-(4-cyanobenzyl)-1,2,3,4-tetrahydroisoquinolin-7-yl)-N5-(4-fluorobenzyl)pyridine-2,5-dicarboxamide] showed a pEC50 of 6.00 to 6.30.
Molecule N#Cc1ccc(CN2CCC(NC(=O)c3ccc(C(=O)N4CCN(C(=O)c5ccccc5)CC4)cn3)CC2)cc1 [Compound 80, 5-(4-benzoylpiperazine-1-carbonyl)-N-(1-(4-cyanobenzyl)piperidin-4-yl)picolinamide] has a pEC50 of 5.30 to 6.00.
With COc1ccc(N2CCC(NC(=O)c3ccc(C(=O)N4CCC(Oc5ccc(C#N)cc5)CC4)nc3)CC2)cc1 [Compound 423, 6-(4-(4-cyanophenoxy)piperidine-1-carbonyl)-N-(1-(4-methoxyphenyl)piperidin-4-yl)nicotinamide] the pEC50 was > 6.30.
In the case of COc1ccc(CN2CCC(NC(=O)c3ccc(C(=O)N4CCC(Oc5ccc(S(F)(F)(F)(F)F)cc5)CC4)nc3)CC2)cc1 [Compound 495, N-(1-(4-methoxybenzyl)piperidin-4-yl)-6-(4-(4-(pentafluorosulfanyl)phenoxy)piperidine-1-carbonyl)nicotinamide], the pEC50 was > 6.30.
For O=C(NC1CCN(Cc2ccccc2)CC1)c1ccc(C(=O)N2CCN(Cc3ccccc3)CC2)cn1 [Compound 72, 5-(4-benzylpiperazine-1-carbonyl)-N-(1-benzylpiperidin-4-yl)picolinamide], the pEC50 was > 6.30.
CS(=O)(=O)c1ccc(C(=O)C2CCN(C(=O)c3ccc(C(=O)N[C@@H]4CCN(Cc5ccc(OC(F)(F)F)cc5)C[C@H]4F)nc3)CC2)cc1 (relative stereo) [Compound 253, N-((trans)-3-fluoro-1-(4-(trifluoromethoxy)benzyl)piperidin-4-yl)-5-(4-(4-(methylsulfonyl)benzoyl)piperidine-1-carbonyl)picolinamide] showed a pEC50 of 6.00 to 6.30.
With N#Cc1ccc(CN2CCC(NC(=O)c3ccc(C(=O)N4CCC(Oc5ccc(C(F)(F)F)cc5)CC4)cn3)CC2)cc1 [Compound 157, N-(1-(4-cyanobenzyl)piperidin-4-yl)-5-(4-(4-(trifluoromethyl)phenoxy)piperidine-1-carbonyl)picolinamide] the pEC50 was > 6.30.
Molecule CC(C)(c1ccc(C#N)cc1)N1CCC(NC(=O)c2ccc(C(=O)N3CCN(Cc4ccc(F)cc4)CC3)cn2)CC1 [Compound 111, N-(1-(2-(4-cyanophenyl)propan-2-yl)piperidin-4-yl)-5-(4-(4-fluorobenzyl)piperazine-1-carbonyl)picolinamide] has a pEC50 of 5.30 to 6.00.
For COc1ccc(C(=O)C2CCN(C(=O)c3ccc(C(=O)N[C@@H]4CCN(Cc5ccc(C#N)cc5)C[C@H]4F)cn3)CC2)cc1 (relative stereo) [Compound 349, N-((trans)-1-(4-cyanobenzyl)-3-fluoropiperidin-4-yl)-6-(4-(4-methoxybenzoyl)piperidine-1-carbonyl)nicotinamide], the pEC50 was > 6.30.
N#Cc1ccc(OC2CCN(C(=O)c3ccc(C(=O)NC4CCN(Cc5cc(F)cc(F)c5)CC4)cn3)CC2)cc1 [Compound 322, 6-(4-(4-cyanophenoxy)piperidine-1-carbonyl)-N-(1-(3,5-difluorobenzyl)piperidin-4-yl)nicotinamide] was tested, and the pEC50 was > 6.30.
With N#Cc1ccc(CN2CCC(NC(=O)c3ccc(C(=O)N4CCC(Oc5ccc(F)cc5F)CC4)nc3)CC2)cc1 [Compound 345, N-(1-(4-cyanobenzyl)piperidin-4-yl)-6-(4-(2,4-difluorophenoxy)piperidine-1-carbonyl)nicotinamide] the pEC50 was > 6.30.
For N#Cc1ccc(CN2CCC(NC(=O)c3ccc(C(=O)N4CCC(C(O)c5ccc(F)cc5)CC4)cn3)CC2)cc1 (centres unmarked) [Compound 142, N-(1-(4-cyanobenzyl)piperidin-4-yl)-5-(4-((4-fluorophenyl)(hydroxy)methyl)piperidine-1-carbonyl)picolinamide], the pEC50 was > 6.30.
For COc1ccc(CN2CCC(NC(=O)c3ccc(C(=O)N4CCN(Cc5ccc(F)cc5)CC4)cn3)CC2)cc1 [Compound 117, 5-(4-(4-fluorobenzyl)piperazine-1-carbonyl)-N-(1-(4-methoxybenzyl)piperidin-4-yl)picolinamide], the pEC50 was > 6.30.
For COc1ccc(CN2CCC(NC(=O)c3ccc(C(=O)N4CCN(Cc5ccc(C#N)cc5)CC4)cn3)CC2)cc1 [Compound 285, 5-(4-(4-cyanobenzyl)piperazine-1-carbonyl)-N-(1-(4-methoxybenzyl)piperidin-4-yl)picolinamide], the pEC50 was > 6.30.
COc1ccc(OC2CCN(C(=O)c3ccc(C(=O)N[C@H]4CC[C@@H](Oc5ccc(C#N)cc5)CC4)nc3)CC2)cc1 [Compound 174, N-((cis)-4-(4-cyanophenoxy)cyclohexyl)-5-(4-(4-methoxyphenoxy)piperidine-1-carbonyl)picolinamide] was tested, and the pEC50 was > 6.30.
In the case of N#Cc1ccc(CN2CCC(NC(=O)c3ccc(N4CCC(Oc5ccc(C(F)(F)F)cc5)CC4)cn3)CC2)cc1 [Compound 301, N-(1-(4-cyanobenzyl)piperidin-4-yl)-5-(4-(4-(trifluoromethyl)phenoxy)piperidin-1-yl)picolinamide], the pEC50 was > 6.30.
In the case of CN(C)C(=O)c1ccc(Oc2ccc(NC(=O)c3ccc(C(=O)N4CCC(C(=O)c5ccc(F)cc5F)CC4)nc3)cn2)cc1 [Compound 481, 6-(4-(2,4-difluorobenzoyl)piperidine-1-carbonyl)-N-(6-(4-(dimethylcarbamoyl)phenoxy)pyridin-3-yl)nicotinamide], the pEC50 was > 6.30.
In the case of COc1ccc(CN2CCC(NC(=O)c3ccc(C(=O)N4CCC(C(=O)c5ccc(F)c(F)c5)CC4)cn3)CC2)cc1 [Compound 329, 5-(4-(3,4-difluorobenzoyl)piperidine-1-carbonyl)-N-(1-(4-methoxybenzyl)piperidin-4-yl)picolinamide], the pEC50 was > 6.30.
COc1ccc(C(=O)C2CCN(C(=O)c3ccc(C(=O)NC4CCN(Cc5ccc(C(=O)N(C)C)cc5)CC4)cn3)CC2)cc1 [Compound 490, N-(1-(4-(dimethylcarbamoyl)benzyl)piperidin-4-yl)-6-(4-(4-methoxybenzoyl)piperidine-1-carbonyl)nicotinamide] gave a pEC50 of 5.30 to 6.00.
N#Cc1ccc(OC2CN(C(=O)c3ccc(C(=O)Nc4ccc(Oc5ccc(F)cc5)nc4)nc3)C2)cc1 [Compound 210, 5-(3-(4-cyanophenoxy)azetidine-1-carbonyl)-N-(6-(4-fluorophenoxy)pyridin-3-yl)picolinamide] was tested, and the pEC50 was < 5.00.
For COc1ccc(C(=O)C2CCN(C(=O)c3ccc(C(=O)N[C@@H]4CCN(Cc5ccc(C#N)cc5)C[C@H]4F)cn3)CC2)cc1 [Compound 452, N-((3R,4R)-1-(4-cyanobenzyl)-3-fluoropiperidin-4-yl)-6-(4-(4-methoxybenzoyl)piperidine-1-carbonyl)nicotinamide], the pEC50 was > 6.30.
For CC(=O)Nc1ccc(OC2CCN(C(=O)c3ccc(C(=O)Nc4ccc(Oc5ccc(F)cc5)nc4)nc3)CC2)cc1 [Compound 408, 5-(4-(4-acetamidophenoxy)piperidine-1-carbonyl)-N-(6-(4-fluorophenoxy)pyridin-3-yl)picolinamide], the pEC50 was > 6.30.
With O=C(Nc1ccc(Oc2ccc(F)cc2)nc1)c1ccc(C(=O)N2CCC(C(=O)c3ccc(N4CCCC4)cc3)CC2)nc1 [Compound 382, N-(6-(4-fluorophenoxy)pyridin-3-yl)-6-(4-(4-(pyrrolidin-1-yl)benzoyl)piperidine-1-carbonyl)nicotinamide] the pEC50 was > 6.30.
Molecule O=C(NC1CCN(CC2CCCCC2)CC1)c1ccc(C(=O)N2CCN(Cc3ccc(F)cc3)CC2)cn1 [Compound 13, N-(1-(cyclohexylmethyl)piperidin-4-yl)-5-(4-(4-fluorobenzyl)piperazine-1-carbonyl)picolinamide] has a pEC50 of 5.30 to 6.00.
For N#Cc1ccc(CN2CCC(NC(=O)c3ccc(C(=O)N4CCC(Oc5ccc(S(=O)(=O)C(F)(F)F)cc5)CC4)nc3)C(F)C2)cc1 (stereo in doubt) [Compound 451, N-((3S,4R)-1-(4-cyanobenzyl)-3-fluoropiperidin-4-yl)-6-(4-(4-(trifluoromethylsulfonyl)phenoxy)piperidine-1-carbonyl)nicotinamide], the pEC50 was > 6.30.
